In ChEMBL document CHEMBL1201862, “PubChem BioAssay data set” (2004):
One block for each compound: values may come before it. Calls of active or inactive are those of the source.

How the values were obtained:
SUMO-activating enzyme [1] = target: T1, SUMO-activating enzyme (Homo sapiens, UniProt Q9UBT2); assay: SUMOylation inhibitor hit validation, confirmation, SUMOylation inhibitor project, biochemical, AlphaScreen (AID 2018); assay type: functional
SUMO-activating enzyme [2] = target: T1, SUMO-activating enzyme; assay: inhibitors of in vitro SUMOylation cascade, primary screen, biochemical, HTRF, uHTS (AID 2006); assay type: protein-complex assay
[3] = inhibitors of intracellular T. cruzi replication, confirmation, NIH3T3 host cells, beta-gal luminescence (AID 2044); assay type: functional, cell-based;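 also: intracellular parasites grown in NIH/3T3 mouse fibroblasts as host cells; luminescent beta-galactosidase reporter signal from transgenic T. cruzi replicating inside host cells; inhibitors lower the luminescence signal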
[4] = cytotoxicity toward NIH3T3 fibroblasts, dose response, counter-screen, cell-based, ATP luminescence, mouse fibroblasts (AID 2010); assay type: functional;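 also: cells exposed to compound for about 90 hours before reading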
[5] = Counterscreen for AddAB inhibitors: absorbance-based bacterial cell-based high throughput dose response assay for inhibitors of bacterial viability. [Related pubchem assays (depositor defined):AID435030, AID449728, AID449731, AID488942, AID488955, AID488956]; assay type: functional
[6] = target: T2, Intestinal-type alkaline phosphatase (Homo sapiens, UniProt P09923); assay: human intestinal alkaline phosphatase activators, dose response, biochemical, luminescence, uHTS hits (AID 463120); assay type: functional
T2 sequence (P09923 whole entry): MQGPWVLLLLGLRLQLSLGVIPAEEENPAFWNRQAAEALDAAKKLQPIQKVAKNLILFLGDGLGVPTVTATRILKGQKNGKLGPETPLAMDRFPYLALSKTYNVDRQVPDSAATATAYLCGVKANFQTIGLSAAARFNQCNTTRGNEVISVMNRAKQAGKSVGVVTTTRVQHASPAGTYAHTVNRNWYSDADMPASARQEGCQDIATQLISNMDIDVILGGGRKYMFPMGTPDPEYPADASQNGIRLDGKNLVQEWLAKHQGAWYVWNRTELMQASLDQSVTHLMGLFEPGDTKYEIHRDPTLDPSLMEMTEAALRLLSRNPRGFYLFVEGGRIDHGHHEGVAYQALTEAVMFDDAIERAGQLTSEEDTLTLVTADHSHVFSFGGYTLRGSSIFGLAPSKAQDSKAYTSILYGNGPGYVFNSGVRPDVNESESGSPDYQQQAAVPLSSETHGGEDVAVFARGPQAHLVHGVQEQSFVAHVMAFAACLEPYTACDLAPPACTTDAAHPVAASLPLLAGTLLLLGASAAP

Coagulation factor XII = target: T3, Coagulation factor XII (Homo sapiens, UniProt P00748); assay type: functional;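 also: activated factor XIIa alpha cleaving a fluorogenic AMC peptide substrate; inhibitor potency from loss of enzyme activity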
T3 sequence (P00748 whole entry): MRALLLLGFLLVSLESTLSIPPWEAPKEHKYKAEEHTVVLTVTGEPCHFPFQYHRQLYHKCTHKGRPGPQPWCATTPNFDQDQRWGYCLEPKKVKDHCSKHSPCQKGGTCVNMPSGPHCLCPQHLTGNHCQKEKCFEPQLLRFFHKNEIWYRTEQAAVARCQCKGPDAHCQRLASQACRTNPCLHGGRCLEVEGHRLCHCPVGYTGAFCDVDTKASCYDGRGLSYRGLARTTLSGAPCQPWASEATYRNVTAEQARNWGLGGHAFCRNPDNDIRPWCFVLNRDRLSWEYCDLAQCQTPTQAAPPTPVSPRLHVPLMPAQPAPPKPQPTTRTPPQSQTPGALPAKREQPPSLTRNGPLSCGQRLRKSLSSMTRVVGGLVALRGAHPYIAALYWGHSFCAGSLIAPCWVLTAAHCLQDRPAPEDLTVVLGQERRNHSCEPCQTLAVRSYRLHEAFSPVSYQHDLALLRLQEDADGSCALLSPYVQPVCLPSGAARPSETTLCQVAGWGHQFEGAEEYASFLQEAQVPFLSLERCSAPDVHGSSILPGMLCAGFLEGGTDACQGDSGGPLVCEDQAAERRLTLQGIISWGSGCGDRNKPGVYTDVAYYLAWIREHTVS

[7] = target: T2, Intestinal-type alkaline phosphatase; assay: Dose Response confirmation of uHTS hits from a small molecule inhibitors of human intestinal alkaline phosphatase via a luminescent assay. [Related pubchem assays (depositor defined):AID2544, AID2574]; assay type: functional
T-cell = assay: inhibitors of CD8+ T cell–vesicle binding, dose response, mouse 2C CD8+ T cells, flow cytometry (AID 485284); assay type: functional
Hexokinase HKDC1 = target: T4, Hexokinase HKDC1 (Homo sapiens, UniProt Q2TB90); assay: HKDC1 hexokinase activators, dose response, biochemical, W721R variant (AID 504730); assay type: functional
T4 sequence (Q2TB90 whole entry): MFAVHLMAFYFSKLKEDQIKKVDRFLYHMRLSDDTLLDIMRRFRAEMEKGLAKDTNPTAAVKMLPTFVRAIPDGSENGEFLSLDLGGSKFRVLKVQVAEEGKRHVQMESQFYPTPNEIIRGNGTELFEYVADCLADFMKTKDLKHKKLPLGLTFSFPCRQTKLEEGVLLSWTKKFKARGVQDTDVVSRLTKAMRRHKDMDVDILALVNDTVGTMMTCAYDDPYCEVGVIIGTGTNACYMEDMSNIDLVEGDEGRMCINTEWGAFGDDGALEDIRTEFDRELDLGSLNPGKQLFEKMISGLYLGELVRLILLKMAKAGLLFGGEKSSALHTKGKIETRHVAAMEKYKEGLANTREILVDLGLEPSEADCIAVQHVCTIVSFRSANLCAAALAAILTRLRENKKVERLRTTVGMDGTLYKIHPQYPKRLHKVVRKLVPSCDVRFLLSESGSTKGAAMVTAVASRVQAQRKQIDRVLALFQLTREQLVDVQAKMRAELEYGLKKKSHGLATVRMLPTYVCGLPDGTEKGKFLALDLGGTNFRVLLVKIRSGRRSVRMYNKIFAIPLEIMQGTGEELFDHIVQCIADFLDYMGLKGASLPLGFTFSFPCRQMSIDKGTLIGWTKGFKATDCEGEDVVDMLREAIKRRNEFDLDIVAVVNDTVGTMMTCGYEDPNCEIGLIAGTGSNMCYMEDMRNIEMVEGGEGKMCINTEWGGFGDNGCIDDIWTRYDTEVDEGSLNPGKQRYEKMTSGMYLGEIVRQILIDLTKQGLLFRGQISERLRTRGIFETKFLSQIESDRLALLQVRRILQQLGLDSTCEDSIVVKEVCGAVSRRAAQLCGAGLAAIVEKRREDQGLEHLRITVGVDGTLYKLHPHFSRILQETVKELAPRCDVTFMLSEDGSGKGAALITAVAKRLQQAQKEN

Hexokinase-1 = Hexokinase-1 (Homo sapiens, UniProt P19367); assay: hexokinase 1 activators, dose response, selectivity assay for HKDC1 activator project, biochemical (AID 504762); assay type: functional
Hexokinase-1, sequence (P19367 whole entry): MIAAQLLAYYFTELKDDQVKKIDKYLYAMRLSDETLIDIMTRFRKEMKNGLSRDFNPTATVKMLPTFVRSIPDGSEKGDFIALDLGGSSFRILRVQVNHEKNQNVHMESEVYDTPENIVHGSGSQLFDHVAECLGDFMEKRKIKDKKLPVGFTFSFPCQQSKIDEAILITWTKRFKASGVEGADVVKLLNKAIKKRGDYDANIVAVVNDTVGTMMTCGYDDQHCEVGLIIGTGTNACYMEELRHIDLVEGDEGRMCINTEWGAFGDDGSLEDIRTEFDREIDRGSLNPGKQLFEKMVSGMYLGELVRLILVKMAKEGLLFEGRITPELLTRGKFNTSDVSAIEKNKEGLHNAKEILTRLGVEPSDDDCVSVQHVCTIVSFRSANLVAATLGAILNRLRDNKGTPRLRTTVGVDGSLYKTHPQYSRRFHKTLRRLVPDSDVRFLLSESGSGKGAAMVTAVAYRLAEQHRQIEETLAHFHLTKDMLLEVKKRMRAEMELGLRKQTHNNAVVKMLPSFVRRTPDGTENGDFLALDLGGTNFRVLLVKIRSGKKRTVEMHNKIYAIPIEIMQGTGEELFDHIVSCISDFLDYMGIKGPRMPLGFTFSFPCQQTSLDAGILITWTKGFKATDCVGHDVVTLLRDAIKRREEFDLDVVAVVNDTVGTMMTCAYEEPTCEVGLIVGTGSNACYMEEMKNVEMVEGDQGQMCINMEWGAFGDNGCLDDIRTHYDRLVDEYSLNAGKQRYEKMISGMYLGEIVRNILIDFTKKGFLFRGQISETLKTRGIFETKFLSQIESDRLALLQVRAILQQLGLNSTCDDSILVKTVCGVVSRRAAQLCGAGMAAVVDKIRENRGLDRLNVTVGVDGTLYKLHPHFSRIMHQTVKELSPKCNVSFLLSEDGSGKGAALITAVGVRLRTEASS

INS1 = assay: beta cell apoptosis inhibitors, cytokine rescue, dose response, luminescence, retest (AID 449756); assay type: functional, cell-based; conditions: Rattus norvegicus;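 also: cell death triggered by IL-1 beta plus TNF-alpha plus IFN-gamma mixture; protective hits raise ATP signal compared with cytokine alone wells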
Paired box protein Pax-8 = Paired box protein Pax-8 (Homo sapiens, UniProt Q06710); assay: inhibitors of PAX8-driven TPO luciferase reporter, dose response, RMG-I cells, cherry-pick (AID 687027); assay type: functional, cell-based;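 also: luciferase reporter driven by Pax8 target thyroperoxidase promoter measured by SteadyGlo luminescence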
Paired box protein Pax-8, sequence (Q06710 whole entry): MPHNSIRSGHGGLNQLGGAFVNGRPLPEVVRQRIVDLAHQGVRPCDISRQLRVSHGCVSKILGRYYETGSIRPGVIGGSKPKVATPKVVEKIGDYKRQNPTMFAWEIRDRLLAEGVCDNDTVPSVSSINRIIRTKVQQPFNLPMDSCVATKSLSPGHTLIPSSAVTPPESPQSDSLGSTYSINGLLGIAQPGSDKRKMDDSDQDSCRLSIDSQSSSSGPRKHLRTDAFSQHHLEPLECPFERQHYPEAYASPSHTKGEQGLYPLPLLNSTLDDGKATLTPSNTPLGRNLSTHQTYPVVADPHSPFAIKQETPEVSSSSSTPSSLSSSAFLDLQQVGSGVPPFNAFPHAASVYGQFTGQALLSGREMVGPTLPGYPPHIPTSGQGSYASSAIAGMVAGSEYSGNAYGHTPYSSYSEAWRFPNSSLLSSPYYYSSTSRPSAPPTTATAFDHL

T1 sequence (Q9UBE0 whole entry): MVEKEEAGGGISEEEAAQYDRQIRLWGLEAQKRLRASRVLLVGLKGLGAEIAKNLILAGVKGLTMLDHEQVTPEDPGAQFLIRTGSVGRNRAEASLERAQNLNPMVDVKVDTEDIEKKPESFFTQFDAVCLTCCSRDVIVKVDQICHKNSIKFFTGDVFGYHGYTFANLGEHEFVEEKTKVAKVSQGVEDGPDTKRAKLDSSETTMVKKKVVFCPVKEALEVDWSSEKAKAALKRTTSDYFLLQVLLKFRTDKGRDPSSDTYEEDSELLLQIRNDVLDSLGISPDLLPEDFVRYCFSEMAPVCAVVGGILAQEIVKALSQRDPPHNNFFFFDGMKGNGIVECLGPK
T1 sequence (Q9UBT2 whole entry): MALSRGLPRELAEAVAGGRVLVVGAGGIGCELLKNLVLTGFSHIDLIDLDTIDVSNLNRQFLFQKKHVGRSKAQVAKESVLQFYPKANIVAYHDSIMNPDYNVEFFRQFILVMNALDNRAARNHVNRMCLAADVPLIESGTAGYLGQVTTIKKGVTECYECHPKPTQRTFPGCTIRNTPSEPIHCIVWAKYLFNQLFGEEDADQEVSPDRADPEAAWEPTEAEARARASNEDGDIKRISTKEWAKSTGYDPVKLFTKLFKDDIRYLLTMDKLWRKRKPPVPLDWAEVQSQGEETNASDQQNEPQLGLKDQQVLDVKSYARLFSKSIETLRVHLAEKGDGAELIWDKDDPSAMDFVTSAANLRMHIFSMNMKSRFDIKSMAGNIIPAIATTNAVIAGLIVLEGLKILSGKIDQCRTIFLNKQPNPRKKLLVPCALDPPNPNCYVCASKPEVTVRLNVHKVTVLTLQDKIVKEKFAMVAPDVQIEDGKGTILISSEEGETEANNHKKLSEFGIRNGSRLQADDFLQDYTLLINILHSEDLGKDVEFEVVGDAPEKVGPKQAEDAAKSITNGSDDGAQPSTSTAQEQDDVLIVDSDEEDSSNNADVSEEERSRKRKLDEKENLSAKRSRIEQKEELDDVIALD

Structure (SMILES): O=C(NCc1cccnc1)c1ccc([N+](=O)[O-])o1
EC50 [3]: < 0.1 µM (active) | EC50 [4]: > 60 µM (inconclusive) | IC50 [5]: > 39.5 µM (inactive) | EC50 (cells): 0.137 µM (active)

Structure (SMILES): COc1ccc(C2=Nc3cc(C)ccc3OC2)cc1
IC50 [7]: > 100 µM (inactive) | EC50 (T-cell): 8.65 µM (active)

Structure (SMILES): COc1ccc(C2=NN=C(Nc3cc(S(=O)(=O)N(C)C)ccc3C)SC2)c(OC)c1
EC50 [3]: 3.57 µM (active) | EC50 [4]: 5.85 µM (active) | EC50 (Hexokinase HKDC1): 18.5 µM (active) | EC50 (Hexokinase-1): 17.4 µM (active) | AC50 (INS1): 5.48 µM (active) | AC50 (Paired box protein Pax-8): 6.77 µM (active)

Further lines, results first:

IC50 (SUMO-activating enzyme [1]): 12.1 µM (active) | IC50 (SUMO-activating enzyme [2]): 18 µM (active)
Structure (SMILES): O=C(/C=C/c1ccco1)NC(=S)Nc1ccc(O)c(-c2nc3ccccc3s2)c1

EC50 [6]: > 100 µM (inactive)
Structure (SMILES): CC(C)CCNc1ncnc2c1nnn2Cc1ccccc1Cl

IC50 (Coagulation factor XII): > 50 µM (inactive)
Structure (SMILES): COc1cccc(NC(C)(C)c2nnnn2-c2c(C)cccc2C)c1
